According to publication PMC4433340 (PLoS Neglected Tropical Diseases, 2015):

Assays:
EA.hy926 cells = assay: Cell viability by MTT reduction assay, EA.hy926 cells; assay type: cell-based; details: Homo sapiens, EA.hy 926, 24 hours incubation, mean ± SD, n = 3, read-out: IC50, cellular viability, EA.hy926 cells
Protocol: EA.hy926 cells (ATCC CRL2922) are a human umbilical vein cell line established by fusing primary human umbilical vein cells with a thioguanine-resistant clone of A549 by exposure to polyethylene glycol (PEG). Hybrid clones were selected in HAT medium and screened for factor VIII-related antigen. The cell line was cultured following reported conditions. Cells were cultured on Iscove's Modified Dulbecco's Medium (IMDM, Biological Industries, Israel) supplemented with 10% v/v FBS, 100 U/mL penicillin, and […] streptomycin at 37°C and 5% CO2.
(§1) The effect of the drug on all cells and parasite viability was evaluated through the tetrazolium salt (MTT, Sigma-Aldrich) reduction assay as described. […] Cultures were incubated for 24 hours before adding MTT for 4 hours. The plates were incubated overnight with 10% SDS w/v in 0.01 M HCl at 37°C, and optical density (OD) was determined using a microplate reader (Labsystems Multiskan MS, Finland) at 570 nm. Under these conditions, the OD was directly proportional to viable cell number per well. All of the experiments were performed at least three times, and the data are shown as the means and their standard deviations from triplicate cultures.

HUVEC = assay: Cell viability by MTT reduction assay, HUVEC; assay type: cell-based; details: Homo sapiens, 24 hours incubation, mean ± SD, n = 3, read-out: IC50, cellular viability, HUVEC
Protocol: HUVECs (C-015-10C, Cascade Biologics, Life Technologies, USA) are primary human umbilical vein endothelial cells that are pooled from multiple donors. Cells were cultured in medium 200 (Cascade Biologics, USA) that had been supplemented with low serum growth supplement (LSGS, Cascade Biologics).
as §1

HL-60 cells = assay: Cell viability by MTT reduction assay, HL-60 cells; assay type: cell-based; details: Homo sapiens, 24 hours incubation, mean ± SD, n = 3, read-out: IC50, cellular viability, HL-60 cells
Protocol: HL-60 cells (ATCC CCL240) are a promyelocytic cell line that was derived by S.J. Collins et al. Peripheral blood leukocytes were obtained by leukapheresis from a person with acute promyelocytic leukemia. The cell line was cultured with Iscove's Modified Dulbecco's Medium plus 10% v/v FBS.
as §1

[1] = test system: total E-selectin, ICAM-1 and VCAM-1 protein in T. cruzi-infected endothelial cells; assay: Total ECAM protein by Western blot; assay type: cell-based, human; details: 5 μM simvastatin or 20 μM benznidazole for 24 hours before 16 hours infection
Protocol: (§2) 5x10^5 endothelial cells were rinsed once with PBS and scraped. Proteins were extracted into 100 μL RIPA buffer plus a protease and phosphatase inhibitor cocktail (Radio-Immunoprecipitation Assay; Millipore Corporation, USA) at 4°C. Total protein was quantified with the Lowry assay. Samples in loading buffer (10% SDS, 50% glycerol, 0.5 M Tris, 0.1% bromophenol blue, and 1 M dithiothreitol, pH 6.8) were electrophoretically separated by 10% SDS-PAGE and transferred to a nitrocellulose membrane. Nitrocellulose membranes were incubated with blocking solution (5% w/v nonfat dry milk, 0.1% Tween-20 in Tris-buffered saline) at room temperature for 1 hour. Then, the membranes were incubated at 4°C overnight with 1 mL solution of primary antibodies against E-selectin (1:1000) and α-Tubulin (1:10.000) from Sigma-Aldrich, ICAM-1 (1:2000) and VCAM-1 (1:1000) from Abcam, 7 ml solution of p-IKK (1:1000), IKK (1:1000), p-IκB (1:1000) and IκB (1:1000) from Cell signaling (Cell Signaling Technologies, USA). Bound antibodies were detected with horseradish peroxidase-conjugated secondary antibodies and visualized by Lumminata forte (Millipore). The nitrocellulose was stripped between reprobes using Mild stripping (Millipore) for 10 minutes. Developed films were scanned, and band densitometry was analyzed using ImageJ software (ImageJ 1.47v).

[2] = test system: intracellular T. cruzi amastigotes in EA.hy926 cells; assay: DAPI staining and intracellular amastigote quantification; assay type: cell-based, Trypanosoma cruzi; details: 5 μM simvastatin or 20 μM benznidazole for 24 hours before infection; counted after 72 hours
Protocol: 2x10^4 EA.hy926 cells/slide were seeded in Lab-Tek II Chamber Slides for 12 h. […] Then, the cells were washed and fixed in cold methanol (70%) overnight. The fixed cells were then washed, and 1 mL PBS (pH 7.4) was added. DNA was stained with DAPI (NucBlue; Molecular Probes, USA) following the manufacturer's instructions. The cells were photographed using a Nikon Eclipse 400 fluorescence microscope using 358 nm (excitation) and 461 nm (emission) wavelengths. In total, ten pictures were obtained per well, and each picture was counted using MATLAB software.
In Fig 3, total E-selectin (Fig 3A), ICAM-1 (Fig 3B) and VCAM-1 (Fig 3C) protein expression analyses are shown. […] To evaluate parasite load, DAPI-stained cells were photographed (20.12 ± 3.8 cells per photograph, 20 photographs per experimental condition; infected to uninfected cells ratio of 1:5) and the number of intracellular amastigotes was determined by manual count.

[3] = test system: HL-60 leukocyte adhesion to T. cruzi-infected endothelial cells; assay: Leukocyte-endothelium cell adhesion assay; assay type: cell-based, human; details: 5 μM simvastatin or 20 μM benznidazole for 24 hours before 16 hours infection; HL-60 leukocytes
Protocol: The leukocyte adhesion assay was performed with the Cytoselect Leukocyte-Endothelium Adhesion Assay kit (CBA-210; Cell Biolabs, USA). Briefly, EA.hy926 cells were cultured in 96-well plates that had been previously coated with gelatin for 1 hour. […] LeukoTracker-labeled leukocytes (HL60 cells) were added to the monolayer and incubated for 90 min. After thorough washing, cells were lysed, and fluorescence was measured at 480 nm excitation/520 nm emission. The percentage of adherent leukocytes was calculated: % adherence = adherent signal/total signal. All of the determinations were performed in triplicate using a fluorescence microplate reader (Varioskan, Thermo Scientific).

[4] = test system: NF-κB pathway (p-IKK, p-IκB) in T. cruzi-infected EA.hy926 cells; assay: IKK and IκB phosphorylation by Western blot; assay type: cell-based, human; details: 5 μM simvastatin or 20 μM benznidazole, T. cruzi 1 hour
Protocol: as §2

SMILES	IC50 (EA.hy926 cells) [µM]	IC50 (HUVEC) [µM]	IC50 (HL-60 cells) [µM]	Total cell adhesion molecule protein amount [1]	Intracellular T. cruzi (amastigote) load [2]	Leukocyte adhesiveness to infected endothelial cells [3]	Response of the IKK-IκB system (p-IKK, p-IκB) [4]
CCC(C)(C)C(=O)O[C@H]1C[C@@H](C)C=C2C=C[C@H](C)[C@H](CC[C@@H]3C[C@@H](O)CC(=O)O3)[C@H]21 [Simvastatin]	65.4 ± 1.02	84.4 ± 1.56	68 ± 1.11	decreased cell adhesion molecule amount	not affected	adhesiveness decreased	significantly decreased the response of the Ikk-IkB system
O=C(Cn1ccnc1[N+](=O)[O-])NCc1ccccc1 [Benznidazole]	< 100	< 100	< 100	decreased cell adhesion molecule amount	not affected	adhesiveness decreased	significantly decreased the response of the Ikk-IkB system
